This note sets out measurements from EP4310093A1, “AMINO ACID DERIVATIVE, PREPARATION METHOD THEREFOR, AND PHARMACEUTICAL COMPOSITION FOR TREATING HEPATITIS, COMPRISING SAME” (priority 2021, dated 2022).

This assay concerns the target T1, NTCP (Homo sapiens, UniProt Q14973).
T1 construct: expressed in transfected cells; host or cells: HepG2-hNTCP-C4
T1 sequence (Q14973 1-349): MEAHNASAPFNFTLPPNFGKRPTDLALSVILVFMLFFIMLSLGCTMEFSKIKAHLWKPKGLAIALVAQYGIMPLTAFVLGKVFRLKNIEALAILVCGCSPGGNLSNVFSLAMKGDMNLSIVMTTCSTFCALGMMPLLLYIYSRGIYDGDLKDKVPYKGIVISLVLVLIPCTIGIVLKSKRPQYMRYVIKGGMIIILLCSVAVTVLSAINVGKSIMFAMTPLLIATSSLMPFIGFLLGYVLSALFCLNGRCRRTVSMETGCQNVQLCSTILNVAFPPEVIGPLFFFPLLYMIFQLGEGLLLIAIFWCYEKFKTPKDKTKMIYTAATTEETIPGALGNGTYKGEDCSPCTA
As to the kind of experiment: Inhibition of the binding between PreS1 (FITC-labelled) and NTCP expressing cell lines, flow cytometry. Particulars: for activity at 50 µM: 2 h, read-out: relative fluorescence intensity compared to the HBV-induced group (HBV PreS1) solely treated with PreS1, 50 µM compound, 20 nM PreS1, HepG2-hNTCP-C4 cell line, 4°C, 2 hours, the lower the value, the more inhibited the binding. The protocol:
HepG2-hNTCP-C4 cell line, a cell line expressing NTCP, was seeded in a 6 well plate at a density of 2×10^5/well and incubated at 4°C for 30 minutes when the confluency reached 80% after overnight incubation for 2 days. Thereafter, 20 nM PreS 1 (Myr-[…]-Lys(FITC)) and the compounds in Example 1, Examples 38 to 56 or the compound in Comparative Example 1 were treated by diluting in culture media at 4°C at a concentration of 50 µM respectively, and the media was suctioned after 2 hours, followed by washing 3 times with 4°C PBS. In order to take the cells off from the plate, 500 µl of 0.5 mM EDTA PBS solution was treated, and then incubation was performed at 37°C for 15 minutes to check whether the cells fell off through an optical microscope. After taking off the cells by pipetting, the cells were collected in a 1.5 ml tube and centrifuged (4000 rpm, 4°C, 3 min). After suctioning the supernatant, the pellet was washed 3 times with 4°C PBS, and then green fluorescence was measured via flow cytometry. In this case, taurocholic acid (TCA), a compound known as a substrate of NTCP to reduce the entry of HBV or HDV, was used as a positive control group.
In the graph at the top of FIG. 1, black (1) and red (2) indicate a negative control group with no treatment and an HBV-induced group (HBV preS1) solely treated with PreS1, respectively. Blue (HBV preS1+HBV entry inhibitor) (3) is the fluorescence value for each of Examples or Comparative Examples, evaluated that the closer to the negative control group, the more inhibited the binding between PreS1 and the NTCP cell line.
The experimental method was the same as in the Experimental Example 1-1, and 20 nM PreS1 and each compound were treated at 4 concentrations (0.2 µM, 2 µM, 10 µM, 50 µM).
With an expectation that there is a structure-activity relationship among compounds composed of bile acid and amino acids, for each of bile acids in Comparative Example 1 (lithocholic acid, LCA), Comparative Example 2 (ursodeoxycholic acid, UDCA), Comparative Example 3 (cholic acid, CA), Comparative Example 4 (hyodeoxycholic acid, HDCA), Comparative Example 5 (deoxycholic acid, DCA), and Comparative Example 6 (chenodeoxycholic acid, CDCA), an evaluation experiment was conducted on an ability to inhibit the binding between PreS1 and NTCP expressing cell lines, and also for Examples 1 (LCA-Ile) and Example 44 (LCA-Val) as well as the compounds in Example 2 (UDCA-Ile), Example 3 (UDCA-Val), Example 6 (CA-Ile), Example 7 (CA-Val), Example 8 (HDCA-Ile), Example 9 (HDCA-Val), Example 10 (DCA-Ile), Example 11 (DCA-Val), Example 14 (CDCA-Ile), and Example 15 (CDCA-Val) in which bile acid parts (lithocholic acid) of Example 1 (LCA-Ile) and Example 44 (LCA-Val) were substituted with other types of bile acids in Comparative Examples 2 to 6, an evaluation experiment was conducted on an ability to inhibit the binding between PreS1 and NTCP expressing cell lines. The experimental method was the same as in the Experimental Example 1-1, and 18 compounds in the Comparative Examples 1 to 6, Examples 1 to 3, Examples 6 to 11, Examples 14 to 15, and Example 44 were treated at a concentration of 50 µM along with 20 nM PreS 1. […]
In the Experimental Examples 1-4, it was determined whether there is additionally concentration dependence for Example 4 (UDCA-Trp), a compound with good inhibitory ability. […]
For orientation: In flow cytometry, cells or beads pass a laser one at a time.

Take `C[C@H](CCC(=O)N[C@@H](Cc1c[nH]c2ccccc12)C(=O)O)[C@H]1CC[C@H]2[C@@H]3[C@@H](O)C[C@@H]4C[C@H](O)CC[C@]4(C)[C@H]3CC[C@]12C` [Example 4, (S)-2-((R)-4-((3R,5S,7S,8R,9S,10S,13R,14S,17R)-3,7-dihydroxy-10,13-dimethyl-hexadecahydro-1H-cyclopenta[a]phenanthren-17-yl)pentanamido)-3-(1H-indol-3-yl)propanoic acid]: the “effect of inhibiting the binding between PreS1 and NTCP expressing cell lines by treatment concentration” value (2 µM, 10 µM, 20 µM, 50 µM compound, 20 nM PreS1) is recorded as “concentration dependent”.

As for `C[C@H](CCC(=O)N1CCCC1C(=O)O)[C@H]1CC[C@H]2[C@@H]3CC[C@@H]4C[C@H](O)CC[C@]4(C)[C@H]3CC[C@]12C` (stereo partly drawn) [Example 38, 1-((R)-4-((3R,5R,8R,9S,10S,13R,14S,17R)-3-hydroxy-10,13-dimethyl-hexadecahydro-1H-cyclopenta[a]phenanthren-17-yl)pentanoyl)pyrrolidine-2-carboxylic acid], the activity at 50 µM is at most 20%.

As for `C[C@H](CCC(=O)N[C@@H](CS)C(=O)O)[C@H]1CC[C@H]2[C@@H]3CC[C@@H]4C[C@H](O)CC[C@]4(C)[C@H]3CC[C@]12C` [Example 40, (R)-2-((R)-4-((3R,5R,8R,9S,10S,13R,14S,17R)-3-hydroxy-10,13-dimethyl-hexadecahydro-1H-cyclopenta[a]phenanthren-17-yl)pentanamido)-3-mercaptopropanoic acid], the activity at 50 µM is at most 20%.

With `CC(C)C[C@H](NC(=O)CC[C@@H](C)[C@H]1CC[C@H]2[C@@H]3CC[C@@H]4C[C@H](O)CC[C@]4(C)[C@H]3CC[C@]12C)C(=O)O` [Example 47], the activity at 50 µM was at most 20%.

`CSCC[C@H](NC(=O)CC[C@@H](C)[C@H]1CC[C@H]2[C@@H]3CC[C@@H]4C[C@H](O)CC[C@]4(C)[C@H]3CC[C@]12C)C(=O)O` [Example 48, (S)-2-((R)-4-((3R,5R,8R,9S,10S,13R,14S,17R)-3-hydroxy-10,13-dimethyl-hexadecahydro-1H-cyclopenta[a]phenanthren-17-yl)pentanamido)-4-(methylthio)butanoic acid]: the activity at 50 µM is at most 20%.
